Experimental data reported in US6737383B1, “Herbicidal oxadiazolidines” (priority 1999, dated 2004).

Key:
[1] = tested on: crabgrass; assay: Test B pre/postemergence crabgrass; format: in vivo, Digitaria sanguinalis
In short: (§1)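 Herbicidal effect was estimated by eye on a ten-point control scale after plants spent twelve to sixteen days in a greenhouse following soil or foliar treatment. Foliar sprays targeted plants at one to four leaves; all doses were formulated in a non-phytotoxic solvent with surfactant.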

[2] = tested on: velvetleaf; assay: Test B pre/postemergence velvetleaf; format: in vivo, Abutilon theophrasti
In short: as §1

[3] = tested on: smallflower flatsedge; assay: Test B flood test smallflower flatsedge; format: in vivo, Cyperus difformis; settings: Pre-emergence
In short: (§2)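 Read-out is a visual response score from 0 (no effect) to 10 (complete control), assigned by comparison with untreated controls. Treatment was applied at the 2-leaf stage, and plants stayed in the greenhouse for twelve to sixteen days before scoring.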

[4] = tested on: soybean; assay: Test B pre/postemergence soybean; format: in vivo, Glycine max
In short: as §1

[5] = tested on: corn; assay: Test B pre/postemergence corn; format: in vivo, Zea mays
In short: as §1

[6] = tested on: bedstraw; assay: Test B pre/postemergence bedstraw; format: in vivo, Galium aparine
In short: as §1

[7] = tested on: wheat; assay: Test B pre/postemergence wheat; format: in vivo, Triticum aestivum
In short: as §1

[8] = tested on: blackgrass; assay: Test B pre/postemergence blackgrass; format: in vivo, Alopecurus myosuroides
In short: as §1

[9] = tested on: pigweed; assay: Test B pre/postemergence pigweed; format: in vivo, Amaranthus retroflexus
In short: as §1

[10] = tested on: wild oat; assay: Test B pre/postemergence wild oat; format: in vivo, Avena fatua
In short: as §1

[11] = tested on: rape; assay: Test B pre/postemergence rape; format: in vivo, Brassica napus
In short: as §1

[12] = tested on: sugar beet; assay: Test B pre/postemergence sugar beet; format: in vivo, Beta vulgaris
In short: as §1

[13] = tested on: surinam grass; assay: Test B pre/postemergence surinam grass; format: in vivo, Brachiaria decumbens
In short: as §1

[14] = tested on: purple nutsedge; assay: Test B pre/postemergence purple nutsedge; format: in vivo, Cyperus rotundus
In short: as §1

[15] = tested on: bamyardgrass; assay: Test B flood test barnyardgrass; format: in vivo, Echinochloa crus-galli; settings: Pre-emergence
In short: as §2

[16] = tested on: cocklebur; assay: Test B pre/postemergence cocklebur; format: in vivo, Xanthium strumarium
In short: as §1

[17] = Postemergence, Rate 125 g/ha, scale 0 to 10, 0 is no effect, 10 is complete control
[18] = Preemergence, Rate 62 g/ha, scale of 0 to 10 where 0 is no effect and 10 is complete control
[19] = Preemergence, Rate 250 g/ha, scale of 0 to 10 where 0 is no effect and 10 is complete control
[20] = Preemergence, Rate 500 g/ha, scale of 0 to 10 where 0 is no effect and 10 is complete control
[21] = Rate 62 g/ha, Postemergence, scale 0 to 10, 0 no effect, 10 complete control
[22] = Rate 500 g/ha, Postemergence, scale 0 to 10, 0 no effect, 10 complete control
[23] = Rate 1000 g/ha, scale 0 to 10 (0 no effect, 10 complete control)
[24] = Rate 125 g/ha, flood test species, scale 0 to 10 where 0 is no effect and 10 is complete control
[25] = Rate 250 g/ha, flood-test species, scale 0 to 10, 0 is no effect, 10 is complete control
[26] = Rate 500 g/ha, flood test species, scale 0 to 10 (0 no effect, 10 complete control)
[27] = Rate 250 g/ha, Postemergence, scale of 0 to 10 where 0 is no effect and 10 is complete control

CC(C)N(C(=O)n1oc(=O)n(-c2ccc3ccccc3c2)c1=O)c1ccccc1 [Compound 332]
Plant response rating, Crabgrass [1, 17]: 1 | Crabgrass plant response rating [1, 18]: 0 | Crabgrass plant response rating (0 to 10 scale) ([1]; Preemergence, Rate 125 g/ha): 0 | Crabgrass plant response rating [1, 19]: 3 | Crabgrass plant response rating [1, 20]: 5 | Crabgrass plant response rating [1, 21]: 0 | Plant response rating, Crabgrass [1, 22]: 3 | Plant response rating, Velvetleaf [2, 17]: 0 | Velvetleaf plant response rating [2, 18]: 0 | Velvetleaf plant response rating (0 to 10 scale) ([2]; Preemergence, Rate 125 g/ha): 0 | Velvetleaf plant response rating [2, 19]: 0 | Velvetleaf plant response rating [2, 20]: 0 | Velvetleaf plant response rating [2, 21]: 0 | Plant response rating, Velvetleaf [2, 22]: 0 | S. Flatsedge plant response rating [3, 23]: 0 | S. Flatsedge plant response rating [3, 24]: 0 | S. Flatsedge plant response rating [3, 25]: 0 | S. Flatsedge plant response rating [3, 26]: 0 | Plant response rating, Soybean [4, 17]: 2 | Soybean plant response rating [4, 18]: 0 | Soybean plant response rating (0 to 10 scale) ([4]; Preemergence, Rate 125 g/ha): 0 | Soybean plant response rating [4, 19]: 0 | Soybean plant response rating [4, 20]: 0 | Soybean plant response rating [4, 21]: 2 | Plant response rating, Soybean [4, 22]: 3 | Plant response rating, Corn [5, 17]: 0 | Corn plant response rating [5, 18]: 0 | Corn plant response rating (0 to 10 scale) ([5]; Preemergence, Rate 125 g/ha): 0 | Corn plant response rating [5, 19]: 0 | Corn plant response rating [5, 20]: 0 | Corn plant response rating [5, 21]: 0 | Plant response rating, Corn [5, 22]: 0 | Plant response rating, Bedstraw [6, 17]: 0 | Bedstraw plant response rating [6, 18]: 0 | Bedstraw plant response rating (0 to 10 scale) ([6]; Preemergence, Rate 125 g/ha): 0 | Bedstraw plant response rating [6, 19]: 0 | Bedstraw plant response rating [6, 21]: 0 | Plant response rating, Bedstraw [6, 27]: 0 | Plant response rating, Wheat [7, 17]: 0 | Wheat plant response rating [7, 18]: 0 | Wheat plant response rating (0 to 10 scale) ([7]; Preemergence, Rate 125 g/ha): 0 | Wheat plant response rating [7, 19]: 0 | Wheat plant response rating [7, 20]: 0 | Wheat plant response rating [7, 21]: 0 | Plant response rating, Wheat [7, 22]: 0 | Plant response rating, Blackgrass [8, 17]: 0 | Blackgrass plant response rating [8, 18]: 0 | Blackgrass plant response rating (0 to 10 scale) ([8]; Preemergence, Rate 125 g/ha): 0 | Blackgrass plant response rating [8, 19]: 0 | Blackgrass plant response rating [8, 20]: 0 | Blackgrass plant response rating [8, 21]: 0 | Plant response rating, Blackgrass [8, 27]: 0 | Plant response rating, Blackgrass [8, 22]: 0 | Plant response rating, Redroot pigweed [9, 17]: 1 | Redroot pigweed plant response rating [9, 18]: 0 | Redroot pigweed plant response rating (0 to 10 scale) ([9]; Preemergence, Rate 125 g/ha): 0 | Redroot pigweed plant response rating [9, 19]: 0 | Redroot pigweed plant response rating [9, 20]: 3 | Redroot pigweed plant response rating [9, 21]: 0 | Plant response rating, Redroot pigweed [9, 22]: 4 | Plant response rating, Wild oats [10, 17]: 0 | Wild oats plant response rating [10, 18]: 0 | Wild oats plant response rating (0 to 10 scale) ([10]; Preemergence, Rate 125 g/ha): 0 | Wild oats plant response rating [10, 19]: 0 | Wild oats plant response rating [10, 20]: 0 | Wild oats plant response rating [10, 21]: 0 | Plant response rating, Wild oats [10, 22]: 0 | Plant response rating, Rape [11, 17]: 0 | Rape plant response rating [11, 18]: 0 | Rape plant response rating (0 to 10 scale) ([11]; Preemergence, Rate 125 g/ha): 0 | Rape plant response rating [11, 19]: 0 | Rape plant response rating [11, 20]: 0 | Rape plant response rating [11, 21]: 0 | Plant response rating, Rape [11, 22]: 0 | Plant response rating, Sugarbeets [12, 17]: 0 | Sugarbeets plant response rating [12, 18]: 0 | Sugarbeets plant response rating (0 to 10 scale) ([12]; Preemergence, Rate 125 g/ha): 0 | Sugarbeets plant response rating [12, 19]: 0 | Sugarbeets plant response rating [12, 20]: 0 | Sugarbeets plant response rating [12, 21]: 0 | Plant response rating, Sugarbeets [12, 22]: 0 | Plant response rating, B. signalgrass [13, 17]: 0 | B. signalgrass plant response rating [13, 18]: 0 | B. signalgrass plant response rating (0 to 10 scale, 0 is no effect, 10 is complete control) ([13]; Preemergence, Rate 125 g/ha): 0 | B. signalgrass plant response rating [13, 19]: 0 | B. signalgrass plant response rating [13, 20]: 0 | B. signalgrass plant response rating [13, 21]: 0 | Plant response rating, B. signalgrass [13, 27]: 0 | Plant response rating, B. signalgrass [13, 22]: 0 | Plant response rating, Nutsedge [14, 17]: 0 | Nutsedge plant response rating [14, 18]: 0 | Nutsedge plant response rating (0 to 10 scale) ([14]; Preemergence, Rate 125 g/ha): 0 | Nutsedge plant response rating [14, 19]: 0 | Nutsedge plant response rating [14, 20]: 0 | Nutsedge plant response rating [14, 21]: 0 | Plant response rating, Nutsedge [14, 22]: 0 | Barnyardgrass plant response rating [15, 23]: 0 | Barnyardgrass plant response rating [15, 24]: 0 | Barnyardgrass plant response rating [15, 25]: 0 | Barnyardgrass plant response rating [15, 26]: 0 | Plant response rating, Cocklebur [16, 17]: 0 | Cocklebur plant response rating [16, 18]: 0 | Cocklebur plant response rating (0 to 10 scale) ([16]; Preemergence, Rate 125 g/ha): 0 | Cocklebur plant response rating [16, 19]: 0 | Cocklebur plant response rating [16, 20]: 0 | Cocklebur plant response rating [16, 21]: 0 | Plant response rating, Cocklebur [16, 22]: 0
